These results are taken from ChEMBL document CHEMBL5608242 (J Med Chem, 2024).

Assay [1] concerns the target Histone deacetylase 3/Nuclear receptor corepressor 2 (HDAC3/NCoR2) (Homo sapiens, UniProt O15379). Put plainly: biochemical.
Assay [2] deals with T1, Protein deacetylase HDAC6 (Homo sapiens, UniProt Q9UBN7).
T1 sequence (Q9UBN7 whole entry): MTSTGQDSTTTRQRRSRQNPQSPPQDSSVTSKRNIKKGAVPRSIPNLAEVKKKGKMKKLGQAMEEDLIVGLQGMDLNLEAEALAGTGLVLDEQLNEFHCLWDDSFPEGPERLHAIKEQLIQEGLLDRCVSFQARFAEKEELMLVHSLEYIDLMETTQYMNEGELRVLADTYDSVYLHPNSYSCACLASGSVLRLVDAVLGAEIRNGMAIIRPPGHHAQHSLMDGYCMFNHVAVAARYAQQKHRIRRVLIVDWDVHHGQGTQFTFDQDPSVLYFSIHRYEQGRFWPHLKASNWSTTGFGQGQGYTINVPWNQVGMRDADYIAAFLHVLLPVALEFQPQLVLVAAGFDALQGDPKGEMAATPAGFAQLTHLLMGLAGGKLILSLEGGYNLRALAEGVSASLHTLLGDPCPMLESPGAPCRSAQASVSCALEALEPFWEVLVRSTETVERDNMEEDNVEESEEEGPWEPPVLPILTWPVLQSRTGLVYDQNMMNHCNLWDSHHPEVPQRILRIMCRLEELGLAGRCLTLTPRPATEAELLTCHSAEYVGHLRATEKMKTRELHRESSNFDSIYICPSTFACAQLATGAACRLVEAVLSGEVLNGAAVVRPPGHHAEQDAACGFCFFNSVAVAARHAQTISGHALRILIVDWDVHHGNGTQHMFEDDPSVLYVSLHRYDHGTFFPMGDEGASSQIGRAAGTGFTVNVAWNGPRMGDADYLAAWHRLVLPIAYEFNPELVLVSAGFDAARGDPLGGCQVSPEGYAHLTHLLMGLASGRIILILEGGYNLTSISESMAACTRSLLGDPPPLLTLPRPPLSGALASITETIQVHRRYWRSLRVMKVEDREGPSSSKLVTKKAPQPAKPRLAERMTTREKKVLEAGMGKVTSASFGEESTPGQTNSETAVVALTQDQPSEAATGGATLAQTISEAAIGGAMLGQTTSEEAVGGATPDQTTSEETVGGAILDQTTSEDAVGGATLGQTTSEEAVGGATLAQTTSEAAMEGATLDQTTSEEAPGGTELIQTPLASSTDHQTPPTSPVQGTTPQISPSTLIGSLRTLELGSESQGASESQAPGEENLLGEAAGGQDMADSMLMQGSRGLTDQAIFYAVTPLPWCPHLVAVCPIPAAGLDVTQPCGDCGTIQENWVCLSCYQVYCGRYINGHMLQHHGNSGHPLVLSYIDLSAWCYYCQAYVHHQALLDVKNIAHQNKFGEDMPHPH
The assay can be described thus: biochemical.

The target in assay [3] is T2, Histone deacetylase 1 (Homo sapiens, UniProt Q13547). The assay can be described thus: biochemical.
Assay [4] concerns the target Histone deacetylase 2 (Homo sapiens, UniProt Q92769). The assay can be described thus: biochemical.
Assay [5] concerns the target T3, Amine oxidase [flavin-containing] B (Homo sapiens, UniProt P27338).
T3 sequence (P27338 whole entry): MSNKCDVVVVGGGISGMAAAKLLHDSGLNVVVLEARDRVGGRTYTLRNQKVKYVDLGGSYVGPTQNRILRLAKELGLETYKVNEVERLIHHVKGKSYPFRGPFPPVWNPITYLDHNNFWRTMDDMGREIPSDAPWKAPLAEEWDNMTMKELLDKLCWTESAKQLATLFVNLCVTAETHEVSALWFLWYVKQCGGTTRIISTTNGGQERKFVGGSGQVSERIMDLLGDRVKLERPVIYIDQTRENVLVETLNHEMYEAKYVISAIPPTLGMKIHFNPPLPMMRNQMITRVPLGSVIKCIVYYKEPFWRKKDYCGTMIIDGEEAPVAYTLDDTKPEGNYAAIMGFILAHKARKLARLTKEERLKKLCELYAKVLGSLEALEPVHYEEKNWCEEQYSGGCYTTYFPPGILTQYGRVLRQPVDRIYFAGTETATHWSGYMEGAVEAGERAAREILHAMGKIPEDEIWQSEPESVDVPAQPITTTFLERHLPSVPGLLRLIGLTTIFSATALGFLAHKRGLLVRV
Conditions: read-out: INH.
Description: Inhibition of human recombinant MAO-B using para-tyramine as substrate at 1 uM by Amplex Red fluorimetric assay relative to control

In assay [6] the target is T2, Histone deacetylase 1. The assay can be described thus: biochemical. The source holds these as a separate data set.
Assay [7] concerns the target Cholinesterase (Equus caballus, UniProt P81908).

Sequence of Histone deacetylase 3/Nuclear receptor corepressor 2 (HDAC3/NCoR2) (O15379 whole entry): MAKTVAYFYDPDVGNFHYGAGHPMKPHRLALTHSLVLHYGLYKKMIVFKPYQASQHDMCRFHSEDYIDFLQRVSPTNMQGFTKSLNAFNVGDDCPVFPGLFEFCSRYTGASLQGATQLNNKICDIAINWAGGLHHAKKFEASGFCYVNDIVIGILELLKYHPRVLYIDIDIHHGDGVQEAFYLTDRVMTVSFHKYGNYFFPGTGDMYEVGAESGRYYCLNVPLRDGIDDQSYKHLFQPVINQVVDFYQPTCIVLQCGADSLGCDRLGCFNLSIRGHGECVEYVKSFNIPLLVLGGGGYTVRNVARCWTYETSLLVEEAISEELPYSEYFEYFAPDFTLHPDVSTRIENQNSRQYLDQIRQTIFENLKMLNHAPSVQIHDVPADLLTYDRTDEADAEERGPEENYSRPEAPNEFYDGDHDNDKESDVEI
Sequence of Histone deacetylase 3/Nuclear receptor corepressor 2 (HDAC3/NCoR2) (Q9Y618 whole entry, further chain): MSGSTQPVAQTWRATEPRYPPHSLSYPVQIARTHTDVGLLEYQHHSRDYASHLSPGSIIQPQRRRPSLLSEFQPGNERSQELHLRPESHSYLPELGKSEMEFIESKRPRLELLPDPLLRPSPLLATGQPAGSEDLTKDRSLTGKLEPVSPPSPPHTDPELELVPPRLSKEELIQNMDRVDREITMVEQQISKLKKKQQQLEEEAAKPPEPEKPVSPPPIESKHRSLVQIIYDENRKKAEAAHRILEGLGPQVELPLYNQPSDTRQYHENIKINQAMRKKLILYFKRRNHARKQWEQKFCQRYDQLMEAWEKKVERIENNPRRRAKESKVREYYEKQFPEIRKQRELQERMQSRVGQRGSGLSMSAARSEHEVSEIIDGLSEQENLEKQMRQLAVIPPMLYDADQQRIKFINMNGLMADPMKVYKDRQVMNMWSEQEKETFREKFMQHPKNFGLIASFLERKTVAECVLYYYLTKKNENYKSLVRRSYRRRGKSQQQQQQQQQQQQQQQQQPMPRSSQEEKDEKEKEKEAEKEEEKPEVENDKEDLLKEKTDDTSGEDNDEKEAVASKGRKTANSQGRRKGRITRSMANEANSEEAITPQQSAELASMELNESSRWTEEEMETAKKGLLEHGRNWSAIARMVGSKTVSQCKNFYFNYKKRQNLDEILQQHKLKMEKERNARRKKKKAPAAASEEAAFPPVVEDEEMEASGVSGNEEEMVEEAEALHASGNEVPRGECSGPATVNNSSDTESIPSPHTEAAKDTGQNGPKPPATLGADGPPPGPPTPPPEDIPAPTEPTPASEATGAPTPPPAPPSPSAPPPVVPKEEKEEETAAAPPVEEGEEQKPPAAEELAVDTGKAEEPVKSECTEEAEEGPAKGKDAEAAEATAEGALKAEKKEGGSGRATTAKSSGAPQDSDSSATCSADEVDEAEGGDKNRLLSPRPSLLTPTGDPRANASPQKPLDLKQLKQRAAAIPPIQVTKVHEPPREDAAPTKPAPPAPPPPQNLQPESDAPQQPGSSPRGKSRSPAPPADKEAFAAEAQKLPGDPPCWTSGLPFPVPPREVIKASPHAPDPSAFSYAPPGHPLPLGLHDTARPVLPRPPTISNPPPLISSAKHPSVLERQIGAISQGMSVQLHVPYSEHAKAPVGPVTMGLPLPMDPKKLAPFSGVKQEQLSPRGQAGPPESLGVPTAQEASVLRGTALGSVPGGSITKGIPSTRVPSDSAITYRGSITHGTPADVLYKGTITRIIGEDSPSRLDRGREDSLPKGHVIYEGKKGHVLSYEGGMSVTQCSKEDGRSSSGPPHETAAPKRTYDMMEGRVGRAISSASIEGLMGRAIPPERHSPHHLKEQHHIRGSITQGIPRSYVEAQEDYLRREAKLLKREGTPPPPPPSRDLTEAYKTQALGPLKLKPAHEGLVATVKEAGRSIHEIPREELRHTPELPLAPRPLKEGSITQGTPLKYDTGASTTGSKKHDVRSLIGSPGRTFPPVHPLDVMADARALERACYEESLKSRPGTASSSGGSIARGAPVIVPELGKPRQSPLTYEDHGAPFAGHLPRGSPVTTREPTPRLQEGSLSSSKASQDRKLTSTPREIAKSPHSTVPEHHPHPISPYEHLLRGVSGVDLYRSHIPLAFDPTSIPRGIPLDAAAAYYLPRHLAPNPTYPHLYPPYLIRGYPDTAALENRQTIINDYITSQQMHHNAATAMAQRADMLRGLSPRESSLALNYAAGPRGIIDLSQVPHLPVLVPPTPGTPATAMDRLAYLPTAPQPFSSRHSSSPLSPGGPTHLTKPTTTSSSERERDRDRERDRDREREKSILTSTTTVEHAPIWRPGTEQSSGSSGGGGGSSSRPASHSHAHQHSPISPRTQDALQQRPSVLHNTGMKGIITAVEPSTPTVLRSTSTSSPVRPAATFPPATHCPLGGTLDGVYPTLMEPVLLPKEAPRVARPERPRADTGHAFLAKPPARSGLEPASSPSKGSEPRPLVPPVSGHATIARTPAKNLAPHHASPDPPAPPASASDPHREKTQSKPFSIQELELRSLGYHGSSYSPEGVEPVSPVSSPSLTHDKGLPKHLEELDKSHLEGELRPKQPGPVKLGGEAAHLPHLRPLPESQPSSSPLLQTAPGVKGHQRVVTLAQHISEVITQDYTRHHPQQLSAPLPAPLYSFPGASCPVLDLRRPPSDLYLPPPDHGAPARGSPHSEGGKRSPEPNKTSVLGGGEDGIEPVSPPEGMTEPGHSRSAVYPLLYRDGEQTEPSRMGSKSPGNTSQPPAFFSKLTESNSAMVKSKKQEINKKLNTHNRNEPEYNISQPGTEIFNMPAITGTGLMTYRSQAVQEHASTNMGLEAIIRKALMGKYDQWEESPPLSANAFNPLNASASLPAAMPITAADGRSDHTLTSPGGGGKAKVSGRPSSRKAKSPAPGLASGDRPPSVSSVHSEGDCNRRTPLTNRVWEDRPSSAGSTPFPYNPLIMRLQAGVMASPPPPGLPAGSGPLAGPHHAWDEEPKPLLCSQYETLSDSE
T2 sequence (Q13547 whole entry): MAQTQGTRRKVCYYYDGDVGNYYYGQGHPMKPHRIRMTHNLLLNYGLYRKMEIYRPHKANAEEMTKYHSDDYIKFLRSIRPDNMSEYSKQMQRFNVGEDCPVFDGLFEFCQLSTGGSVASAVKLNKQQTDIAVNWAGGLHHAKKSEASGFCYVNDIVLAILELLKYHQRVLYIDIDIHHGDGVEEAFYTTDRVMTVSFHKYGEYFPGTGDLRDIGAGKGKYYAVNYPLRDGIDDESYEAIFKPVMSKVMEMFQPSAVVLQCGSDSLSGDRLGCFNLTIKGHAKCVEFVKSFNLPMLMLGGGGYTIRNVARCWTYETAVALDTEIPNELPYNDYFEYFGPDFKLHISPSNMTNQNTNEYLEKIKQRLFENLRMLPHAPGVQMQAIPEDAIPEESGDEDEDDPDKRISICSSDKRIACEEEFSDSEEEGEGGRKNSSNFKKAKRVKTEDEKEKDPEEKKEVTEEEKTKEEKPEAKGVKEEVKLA
Sequence of Histone deacetylase 2 (Q92769 whole entry): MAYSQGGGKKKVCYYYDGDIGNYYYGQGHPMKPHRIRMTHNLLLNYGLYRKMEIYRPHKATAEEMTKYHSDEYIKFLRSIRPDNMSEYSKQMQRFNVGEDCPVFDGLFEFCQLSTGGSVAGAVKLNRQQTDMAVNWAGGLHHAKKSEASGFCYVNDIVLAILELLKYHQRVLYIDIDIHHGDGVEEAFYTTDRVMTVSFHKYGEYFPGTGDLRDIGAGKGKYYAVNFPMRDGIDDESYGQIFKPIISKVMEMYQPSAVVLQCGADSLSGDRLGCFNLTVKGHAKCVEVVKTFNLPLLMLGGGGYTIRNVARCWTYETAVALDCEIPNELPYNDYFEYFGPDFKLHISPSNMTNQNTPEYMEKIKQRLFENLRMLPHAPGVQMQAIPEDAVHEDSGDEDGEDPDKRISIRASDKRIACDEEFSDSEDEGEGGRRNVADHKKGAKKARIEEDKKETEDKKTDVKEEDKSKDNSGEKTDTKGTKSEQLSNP
Sequence of Cholinesterase (P81908 whole entry): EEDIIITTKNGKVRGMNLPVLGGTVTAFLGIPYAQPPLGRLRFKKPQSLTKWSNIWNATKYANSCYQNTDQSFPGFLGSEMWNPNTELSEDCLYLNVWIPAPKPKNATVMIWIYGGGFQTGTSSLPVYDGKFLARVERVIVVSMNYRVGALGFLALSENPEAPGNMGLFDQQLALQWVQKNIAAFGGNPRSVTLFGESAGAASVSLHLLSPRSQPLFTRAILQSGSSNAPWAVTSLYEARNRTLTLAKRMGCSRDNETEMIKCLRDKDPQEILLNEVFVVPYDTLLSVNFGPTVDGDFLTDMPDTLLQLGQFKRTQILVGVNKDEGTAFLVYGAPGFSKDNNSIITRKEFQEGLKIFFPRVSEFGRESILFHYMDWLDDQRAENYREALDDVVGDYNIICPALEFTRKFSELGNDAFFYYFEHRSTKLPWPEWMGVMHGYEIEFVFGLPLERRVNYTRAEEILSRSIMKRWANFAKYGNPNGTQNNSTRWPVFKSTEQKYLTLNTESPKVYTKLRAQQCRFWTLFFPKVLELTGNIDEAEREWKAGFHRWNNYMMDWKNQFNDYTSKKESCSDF

What is called IC50 is the point on the concentration scale where inhibition reaches its midpoint. A higher IC50 goes with lower potency. Turning to `C#CCN(C)Cc1cc2cc(OCCCN3CCCCC3)ccc2n1C`, the IC50 in assay [1], in assay [2] and in assay [3] was above 10 µM each time.
The compound `COc1ccc2c(ccn2S(=O)(=O)c2ccc(C(=O)NO)cc2)c1` displayed an IC50 in assay [2] of 0.168 µM.
With `C#CCN1CCN(CCCOc2ccc3c(ccn3S(=O)(=O)c3ccc(C(=O)NO)cc3)c2)CC1`, the concentration for half-maximal inhibition (IC50) worked out at 2.71 µM in assay [1] and 5.41 µM in assay [4]. Moreover, the inhibition at 1 µM in assay [5] was found to be 28%.
As to `O=C(NO)c1ccc(S(=O)(=O)n2ccc3cc(OCCCN4CCCCC4)ccc32)cc1`, the half-maximal inhibitory concentration (IC50) in assay [1] amounted to 0.937 µM; in assay [4], 1.92 µM; in assay [6] it was 0.735 µM. Further, the inhibition at 1 µM in assay [5] is below 10%.
In turn, `C#CCN1CCN(CCCOc2ccc3c(ccn3S(=O)(=O)c3ccc(C(=O)Nc4ccccc4N)cc3)c2)CC1` came in with an IC50 in assay [2] above 3.33 µM.
In assay [6], `O=C(NO)c1ccc(S(=O)(=O)n2ccc3cc(OCc4ccccc4)ccc32)cc1` showed an IC50 of 3.99 µM. This lies in the single-digit micromolar range.
Turning to `CCCNNC(=O)c1ccc(S(=O)(=O)n2ccc3cc(OCCCN4CCCCC4)ccc32)cc1`, the concentration for half-maximal inhibition (IC50) in assay [2] is above 10 µM. The inhibition at 1 µM in assay [5] was below 10%.
As to `NNC(=O)c1ccc(S(=O)(=O)n2ccc3cc(OCCCN4CCCCC4)ccc32)cc1`, the IC50 in assay [2] and in assay [6] was above 10 µM throughout.
As to `Nc1ccccc1NC(=O)c1ccc(S(=O)(=O)n2ccc3cc(OCc4ccccc4)ccc32)cc1`, the IC50 in assay [2] was above 10 µM.
Regarding `CCCN(CCC)NC(=O)c1ccc(S(=O)(=O)n2ccc3cc(OC)ccc32)cc1`, the half-maximal inhibitory concentration (IC50) in assay [2] and in assay [3] was above 10 µM each time.
`C#CCN1CCN(CCCOc2ccc3c(ccn3S(=O)(=O)c3ccc(C(=O)NN)cc3)c2)CC1`: the IC50 in assay [2] and in assay [6] was above 10 µM each time.
As to `COc1ccc2c(ccn2S(=O)(=O)c2ccc(C(=O)NN)cc2)c1`, the IC50 in assay [2] and in assay [6] was above 10 µM throughout.
On to `C#CCN1CCN(CCCOc2ccc3c(ccn3S(=O)(=O)c3ccc(C(=O)NNCCC)cc3)c2)CC1`, for which the results for the IC50 in assay [2] and in assay [7] were above 10 µM and 8.81 µM, respectively.
Take `NNC(=O)c1ccc(S(=O)(=O)n2ccc3cc(OCc4ccccc4)ccc32)cc1`: the IC50 in assay [2] and in assay [6] was above 10 µM in each case.
`Nc1ccccc1NC(=O)c1ccc(S(=O)(=O)n2ccc3cc(OCCCN4CCCCC4)ccc32)cc1` returned a half-inhibitory concentration (IC50) in assay [2] above 10 µM.
Regarding `CCCNNC(=O)c1ccc(S(=O)(=O)n2ccc3cc(OC)ccc32)cc1`, the IC50 in assay [2] was above 10 µM. Also, in assay [5], the inhibition at 1 µM is below 10%.
